The text below walks through data of PubChem BioAssay (NCI).

Each structure is given as a SMILES string.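 Results reflect a 48-hour exposure of cells in 96-well plates to compound at five concentrations. TGI: total growth inhibition.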 A value given as a limit tells only on which side of the number the result lay.

Some test systems named below: OVCAR-5 ovarian; DLD-1 colon; HCT-116 colon; RPMI-8226 leukemia; UACC-62 melanoma; A498 renal; KM12 colon; HCT-15 colon; SF-539 CNS; DMS 114 small cell lung; DU-145 prostate.
Common to all, as to assay: NCI tumour cell line growth inhibition, 48 h

On to `Cc1ccc(NP(=O)(Oc2ccccc2)N(CCCl)CCCl)cc1` (stereo not given), for which the TGI in the assay on OVCAR-5 ovarian, in the assay with DLD-1 colon, with HCT-116 colon, with RPMI-8226 leukemia, in the assay on UACC-62 melanoma and with A498 renal was above 100 µM in each case. Moreover, the TGI with KM12 colon, in the assay on HCT-15 colon, with SF-539 CNS and with DMS 114 small cell lung was above 100 µM each time.
Regarding `CCCCCCCCCCCCCCCc1ccc(OCC(O)CO)cc1` (stereo not given), the TGI with OVCAR-5 ovarian is above 100 µM; in the assay on DLD-1 colon it was above 100 µM; in the assay on HCT-116 colon, 31.3 µM; in the assay on RPMI-8226 leukemia, 53.2 µM; in the assay on UACC-62 melanoma, 48 µM; in the assay with A498 renal, above 100 µM. Also, the TGI in the assay with KM12 colon was 31.7 µM; in the assay with HCT-15 colon, above 100 µM; in the assay on SF-539 CNS it was above 100 µM; in the assay with DMS 114 small cell lung it was 68.3 µM.
As to `O=S1(=O)C(c2ccccc2)C(N2CCCCC2)C1C1CC2c3ccccc3C1c1ccccc12` (stereo not given), the TGI in the assay with OVCAR-5 ovarian, in the assay on HCT-116 colon, in the assay on RPMI-8226 leukemia, with UACC-62 melanoma, with A498 renal and in the assay on DU-145 prostate was above 100 µM each time. Also, the TGI with KM12 colon, with HCT-15 colon and in the assay on SF-539 CNS was above 100 µM each time.
As to `CCN(CC)CCCC(C)Nc1ccnc2cc3ccccc3cc12` (stereo not given), the TGI in the assay with OVCAR-5 ovarian was above 100 µM; in the assay with HCT-116 colon it was above 100 µM; in the assay on RPMI-8226 leukemia it was above 100 µM; in the assay with UACC-62 melanoma it was 49.1 µM; in the assay with A498 renal it was 39.9 µM; with DU-145 prostate, above 100 µM. Besides, the TGI is 33.8 µM in the assay on KM12 colon, 14.4 µM with HCT-15 colon and above 100 µM with SF-539 CNS.
In the case of `N#CC(c1ccnc(Cl)n1)c1nc2ccccc2s1` (stereo not given), the TGI in the assay on OVCAR-5 ovarian was above 92.5 µM; in the assay with HCT-116 colon, 9.38 µM; in the assay with RPMI-8226 leukemia, 25.9 µM; with UACC-62 melanoma it was 15.8 µM; with A498 renal, 46.7 µM; with DU-145 prostate, above 100 µM. Besides, the TGI was above 45.9 µM with KM12 colon, 14.8 µM in the assay on HCT-15 colon and 15.1 µM in the assay with SF-539 CNS.
In the case of `CN(C)c1nc(N(C)C)nc(N(C)CN(C)c2ccc(Cl)cc2)n1`, the TGI in the assay with DLD-1 colon, in the assay on HCT-116 colon, with UACC-62 melanoma, in the assay on KM12 colon, with HCT-15 colon and with SF-539 CNS was above 100 µM each time. The TGI with DMS 114 small cell lung is above 100 µM.
`CC(=O)c1c(SCCN2CCCC2)n(-c2ccccc2)c(=S)n(-c2ccccc2)c1=O`: the TGI was above 100 µM in the assay on OVCAR-5 ovarian; 18.6 µM in the assay with HCT-116 colon; 4.61 µM in the assay with RPMI-8226 leukemia; 20 µM with UACC-62 melanoma; 27.7 µM in the assay on A498 renal; 8.85 µM in the assay with DU-145 prostate. For the same molecule, the values for the TGI with KM12 colon, in the assay on HCT-15 colon and with SF-539 CNS were above 55.7 µM, 27.5 µM and 12.5 µM, respectively.
Regarding `Cc1nc2c(n1C)C(=O)c1nc(CBr)[nH]c(=O)c1C2=O`, the TGI in the assay on DLD-1 colon, in the assay with HCT-116 colon, in the assay on RPMI-8226 leukemia, with UACC-62 melanoma, in the assay on A498 renal and in the assay with HCT-15 colon was above 100 µM throughout. Further, the TGI with SF-539 CNS and in the assay with DMS 114 small cell lung was above 100 µM each time.
In the case of `C=CCc1cc(-c2cc(CC=C)c(O)c(CNC)c2)cc(CNC)c1O`, the TGI with DLD-1 colon turned out to be 29.3 µM; in the assay with HCT-116 colon, 28.1 µM; in the assay on RPMI-8226 leukemia it was 50.6 µM; in the assay on UACC-62 melanoma, 31.9 µM; in the assay with A498 renal, 34.6 µM; in the assay with KM12 colon, 30.2 µM. Moreover, the TGI in the assay on HCT-15 colon amounted to 30.2 µM; in the assay on DMS 114 small cell lung, 30.4 µM.
`CO/C=C(/C(=O)OC)c1ccccc1[C@@H]1CC1c1cccc(F)c1` (stereo not given in full): the TGI in the assay with OVCAR-5 ovarian was above 100 µM; with HCT-116 colon it was 77.3 µM; in the assay on RPMI-8226 leukemia it was 48.3 µM; in the assay with UACC-62 melanoma, 50.2 µM; in the assay with A498 renal, 95.9 µM; with DU-145 prostate, above 100 µM. For the same molecule, the TGI in the assay with KM12 colon is 83.9 µM; in the assay on HCT-15 colon it was 78.1 µM; with SF-539 CNS it was 58.1 µM.
As for `CSc1nc(NC2OCC(OC(C)=O)C(OC(C)=O)C2OC(C)=O)c(N=C(C)C(C)=O)c(=O)[nH]1` (stereo not given), the TGI in the assay on OVCAR-5 ovarian, with DLD-1 colon, in the assay with HCT-116 colon, in the assay on RPMI-8226 leukemia, in the assay with A498 renal and in the assay on KM12 colon was above 100 µM each time. For the same molecule, the TGI in the assay on HCT-15 colon, with SF-539 CNS and in the assay on DMS 114 small cell lung was above 100 µM in each case.
Regarding `CC(=O)Oc1c(C)c2c(O)c3c1C1=C(OCOC1=C(C)C3=O)/C(C)=C\C(C)(O)C(O)C(C)C(O)C1C(=O)OC(C(C)C1O)C(C)(O)/C=C/C=C(C)C(=O)N2` (stereo not given), the TGI in the assay with OVCAR-5 ovarian was 88.5 µM; in the assay with HCT-116 colon, above 100 µM; with RPMI-8226 leukemia, above 100 µM; in the assay with UACC-62 melanoma, above 100 µM; in the assay with A498 renal, above 100 µM; in the assay with DU-145 prostate it was above 100 µM. Besides, the TGI in the assay on KM12 colon was above 100 µM; in the assay on HCT-15 colon, above 100 µM; in the assay on SF-539 CNS, 46.8 µM.
Consider `CCN1C=C/C(=C\C=C/c2cc[n+](CC)c3ccccc23)c2ccccc21`, for which the TGI in the assay on OVCAR-5 ovarian came to 15.1 µM; in the assay on HCT-116 colon, 13.4 µM; in the assay on RPMI-8226 leukemia it was 12 µM; in the assay on UACC-62 melanoma, 23.8 µM; with A498 renal, 8.78 µM; with DU-145 prostate it was 26.3 µM. Also, the values for the TGI in the assay on KM12 colon, in the assay with HCT-15 colon and with SF-539 CNS were 12.4 µM, 34.1 µM and 9.08 µM, respectively.
